Where “and” joins values, the source holds several entries; their conditions need not be identical. Identical values can stand only once.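 Five concentrations, 48 hours, 96-well plates. GI50 = concentration required for 50% inhibition of growth.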 Calls of active or inactive are those of the source. Cut-off read from the data, not from the text of the source: active = GI50 up to about 1.1 µM and inactive = higher.
How the values were obtained:
Assay in all cases: NCI tumour cell line growth inhibition, 48 h
NCI/ADR-RES = system: NCI/ADR-RES
A498 = system: A498
MDA-MB-435 = system: MDA-MB-435
SK-MEL-5 = system: SK-MEL-5
DMS-273 = system: DMS-273
UACC-62 = system: UACC-62
MDA-MB-231 = system: MDA-MB-231
HCT-116 = system: HCT-116
PC-3 = system: PC-3
T47D = system: T47D
NCI-H522 = system: NCI-H522
Hs-578T = system: Hs-578T
SF-539 = system: SF-539
XF498 = system: XF498
BT-549 = system: BT-549
MCF7 = system: MCF7
UO-31 = system: UO-31
SK-OV-3 = system: SK-OV-3
SK-MEL-28 = system: SK-MEL-28
MDA-N = system: MDA-N
DU-145 = system: DU-145
HCT-15 = system: HCT-15
A549 = system: A549
SW-620 = system: SW-620
Malme-3M = system: Malme-3M
EKVX = system: EKVX
DLD-1 = system: DLD-1
SNB-75 = system: SNB-75
SNB-78 = system: SNB-78
SK-MEL-2 = system: SK-MEL-2
UACC-257 = system: UACC-257
NCI-H23 = system: NCI-H23
NCI-H460 = system: NCI-H460
HOP-18 = system: HOP-18

Measured: GI50

COC(C(=O)C(O)C(C)O)C1Cc2cc3cc(OC4CC(OC(C)=O)C(OC5CC(O)C(OC)C(C)O5)C(C)O4)cc(O)c3c(O)c2C(=O)C1OC1CC(OC2CC(OC3CC(C)(O)C(OC(=O)C(C)C)C(C)O3)C(O)C(C)O2)C(O)C(C)O1 (centres undefined)
800 nM and 935 nM: HCT-15
938 nM (active) and 1.19 µM (inactive): UO-31
active: A498 14.5 nM and 8.43 nM | MDA-MB-435 85.5 nM | SK-MEL-5 20.1 nM and < 17.8 nM | DMS-273 < 10 nM and 16.9 nM | UACC-62 < 10 nM and 16.2 nM | MDA-MB-231 62.7 nM | HCT-116 < 18.4 nM and < 10 nM | PC-3 201 nM | T47D 124 nM | NCI-H522 15.6 nM and < 10 nM | Hs-578T 36.6 nM | SF-539 16.1 nM and < 10 nM | XF498 < 10 nM and 8.95 nM | BT-549 20.2 nM | MCF7 < 10 nM and 9.16 nM | SK-OV-3 210 nM and 166 nM | SK-MEL-28 < 10 nM and 18.5 nM | MDA-N 112 nM | DU-145 101 nM | A549 10.9 nM and 9.48 nM | SW-620 15.6 nM and 16.2 nM | Malme-3M 23.8 nM and < 13.5 nM | EKVX 10.2 nM and < 10 nM | DLD-1 44.3 nM and 50.7 nM | SNB-75 < 10 nM and 19.1 nM | SNB-78 29.1 nM and 24.1 nM | SK-MEL-2 8.91 nM and < 10 nM | UACC-257 13.9 nM and 26.3 nM | NCI-H23 < 17.8 nM and 15.4 nM | NCI-H460 9.82 nM and < 10 nM | HOP-18 < 10 nM
inactive: NCI/ADR-RES > 60.8 µM and 51.9 µM

From ChEMBL document CHEMBL1201862, “PubChem BioAssay data set” (2004)
